Measurements taken from the NIST ThermoML archive (doi:10.1021/je400157s).

Experiments:
[1] = Liquid; for mass density: 101.33 kPa, Vibrating tube method; for speed of sound: Pulse-echo method
[2] = molar heat capacity at constant pressure; settings: 101.33 kPa, Liquid, Small sample (50 mg) DSC

CCCCCCCC(=O)OCC [ethyl octanoate]
Settings	mass density, [1] [kg/m3]	molar heat capacity at constant pressure, [2] [J/K/mol]
278.15 K	879.5	–
283.15 K	875.22	–
285.01 K	–	338
288.15 K	870.94	–
288.16 K	–	339.38
293.15 K	866.65	341.09
298.15 K	862.36	343.12
303.15 K	858.07	–
303.16 K	–	345.31
308.15 K	853.76	347.48
313.15 K	849.46	349.66
318.15 K	845.14	–
318.16 K	–	351.96
323.15 K	840.81	354.35
328.14 K	–	356.9
328.15 K	836.47	–
333.15 K	832.12	358.95
338.15 K	827.76	361.55
343.15 K	823.39	–
343.16 K	–	363.7
343.78 K	–	364.29
348.15 K	819	–
353.15 K	814.59	–
358.15 K	810.17	–

[1]
Settings	speed of sound [m/s]
292.9 K, 101320 kPa	1668.8
292.91 K, 45590 kPa	1484.7
292.91 K, 60790 kPa	1539.2
292.91 K, 75990 kPa	1590
292.91 K, 91180 kPa	1638.3
292.92 K, 15200 kPa	1359
292.92 K, 30390 kPa	1426.7
292.94 K, 100 kPa	1281.8
298.2 K, 45590 kPa	1468.7
298.2 K, 60790 kPa	1523.7
298.2 K, 75990 kPa	1575
298.2 K, 91180 kPa	1623.9
298.21 K, 30390 kPa	1407.9
298.21 K, 101320 kPa	1654.1
298.22 K, 100 kPa	1261.5
298.22 K, 15200 kPa	1340.8
303.13 K, 45590 kPa	1453.6
303.13 K, 60790 kPa	1509.1
303.13 K, 75990 kPa	1561.4
303.13 K, 91180 kPa	1610.1
303.13 K, 101320 kPa	1639.9
303.14 K, 15200 kPa	1324.2
303.14 K, 30390 kPa	1391.8
303.2 K, 100 kPa	1242.5
308.11 K, 15200 kPa	1307.5
308.11 K, 30390 kPa	1376.3
308.11 K, 45590 kPa	1438.7
308.11 K, 60790 kPa	1494.9
308.11 K, 75990 kPa	1547.2
308.11 K, 91180 kPa	1596.5
308.11 K, 101320 kPa	1627.7
308.17 K, 100 kPa	1223.6
313.09 K, 60800 kPa	1480.5
313.09 K, 91180 kPa	1582.8
313.1 K, 75990 kPa	1533
313.1 K, 101320 kPa	1614.8
313.11 K, 15200 kPa	1290.2
313.11 K, 30390 kPa	1360.2
313.11 K, 45590 kPa	1423.1
313.15 K, 100 kPa	1205
318.24 K, 30390 kPa	1343.9
318.26 K, 15200 kPa	1273
318.26 K, 45590 kPa	1407.4
318.26 K, 60800 kPa	1466
318.26 K, 75990 kPa	1519.4
318.26 K, 91180 kPa	1569.6
318.27 K, 101320 kPa	1601.6
318.32 K, 100 kPa	1185.7

CCCCCCCCCC(=O)OCC [ethyl decanoate]
Settings	mass density, [1] [kg/m3]	molar heat capacity at constant pressure, [2] [J/K/mol]
283.15 K	872.11	–
286.16 K	–	397.73
288.15 K	868.06	398.53
293.15 K	864	400.88
298.15 K	859.94	403.34
303.15 K	855.88	–
303.16 K	–	405.67
308.14 K	851.82	–
308.16 K	–	408.17
313.14 K	847.75	–
313.16 K	–	410.93
318.15 K	843.68	413.64
323.15 K	839.6	416.52
328.15 K	835.52	–
328.16 K	–	419.55
333.14 K	–	422.31
333.15 K	831.43	–
338.14 K	827.33	–
338.15 K	–	425.46
341.11 K	–	427.36
343.15 K	823.23	–
348.15 K	819.11	–
353.14 K	814.99	–

[1]
Settings	speed of sound [m/s]
292.9 K, 30390 kPa	1453.5
292.9 K, 45590 kPa	1511.7
292.9 K, 60790 kPa	1565.9
292.9 K, 75990 kPa	1616.7
292.9 K, 101320 kPa	1693.9
292.91 K, 15200 kPa	1389.4
292.91 K, 91180 kPa	1664.3
292.92 K, 100 kPa	1313.8
298.17 K, 30390 kPa	1436.1
298.17 K, 45590 kPa	1494.9
298.17 K, 60790 kPa	1549.4
298.17 K, 75990 kPa	1601.3
298.17 K, 91180 kPa	1648.6
298.17 K, 101320 kPa	1678.8
298.18 K, 100 kPa	1293.9
298.18 K, 15200 kPa	1370.6
303.16 K, 100 kPa	1275.2
303.16 K, 30390 kPa	1419.1
303.16 K, 45590 kPa	1479.6
303.16 K, 60790 kPa	1534.7
303.16 K, 75990 kPa	1586.9
303.16 K, 91180 kPa	1635
303.16 K, 101320 kPa	1665.9
303.17 K, 15200 kPa	1353.1
308.13 K, 45590 kPa	1464.6
308.13 K, 75990 kPa	1572.1
308.13 K, 101320 kPa	1652.9
308.14 K, 100 kPa	1256.8
308.14 K, 15200 kPa	1335.4
308.14 K, 30390 kPa	1403
308.14 K, 60790 kPa	1520.1
308.14 K, 91180 kPa	1621.8
313.09 K, 45590 kPa	1449.8
313.09 K, 75990 kPa	1559.2
313.09 K, 91180 kPa	1608.6
313.09 K, 101320 kPa	1639
313.1 K, 30390 kPa	1387.5
313.1 K, 60790 kPa	1506.2
313.11 K, 100 kPa	1238.5
313.11 K, 15200 kPa	1318.7
318.26 K, 75990 kPa	1544.9
318.26 K, 91180 kPa	1594.7
318.26 K, 101320 kPa	1626.5
318.27 K, 15200 kPa	1301.6
318.27 K, 30390 kPa	1371.7
318.27 K, 45590 kPa	1434.9
318.27 K, 60790 kPa	1491.6
318.28 K, 100 kPa	1219.7
